The source of these data is patent US6875768B1, “Phthalamide derivatives, intermediates in the production thereof, and agricultural/horticultural insecticides and method for using the same” (Nihon Nohyako Co., Ltd., priority 1999, dated 2005).

The series has as its system diamond back moth (Plutella xylostella). Type of series: in vivo. Conditions: 1,000 ppm; Chinese cabbage seedling with eggs immersed about 30 seconds; counted six days after the immersion; 25° C. From the text:
Insecticidal effect on diamond back moth (Plutella xylostella)
Adult diamond back moths were released and allowed to oviposit on a Chinese cabbage seedling. […] Six days after the immersion, the hatched insects were counted. […] [formula] Criterion • A - - - Mortality 100% • B - - - Mortality 99-90% • C - - - Mortality 89-80% • D - - - Mortality 79-50%
As to `CC(C)NC(=O)c1c(Cl)cccc1C(=O)Nc1nc(-c2ccccc2)c(Cl)s1` [Q8-5], the “insecticidal effect (activity ranking by mortality)” value (from here on “insecticidal effect”) is reported as “B or higher”. As for `Cc1c(NC(=O)c2c(Cl)cccc2C(=O)NC(C)C)noc1-c1ccc(Cl)cc1` [Q4-8], the “insecticidal effect” value is given as “B or higher”. For `CCN(CC)C(=O)c1c(I)cccc1C(=O)Nc1nc(-c2ccc(Cl)cc2)cs1` [Q8-53], the “insecticidal effect” value is given as “B or higher”. In the case of `COc1cc(OC)nc(NC(=O)c2ccccc2C(=O)NC(C)C)n1` [Q33-1] it was “B or higher”; in that of `CC(C)NC(=O)c1c(I)cccc1C(=O)Nn1cnnc1` [Q15-1], “B or higher”. With `Cc1ccsc1NC(=O)c1c(I)cccc1C(=O)NC(C)C` [Q1-42], the “insecticidal effect” value is “B or higher”.

As to `Cc1c(C(F)(F)F)noc1NC(=O)c1cccc(I)c1C(=O)NC(C)C` [Q6-8, N^1-(4-methyl-3-trifluoromethyl-isoxazol-5-yl)-N^2-isopropyl-3-iodophthalamide], the “insecticidal effect” value is “B or higher”.

As for `CSCC(C)(C)NC(=O)c1c(I)cccc1C(=O)Nc1ccc(OC(F)(F)C(F)C(F)(F)F)nc1C` (centres unmarked) [Q27-396], the “insecticidal effect” value is given as “B or higher”. In the case of `Cc1c(NC(=O)c2cccc(I)c2C(=O)NC(C)C)noc1C(F)(F)F` [Q4-12], the “insecticidal effect” value is recorded as “B or higher”. With `Cc1cc(C(C)(C)C)sc1NC(=O)c1c(I)cccc1C(=O)NC(C)C` [Q1-41], the “insecticidal effect” value is “B or higher”. In the case of `Cc1c(NC(=O)c2c(I)cccc2C(=O)NC(C)C)noc1C(F)(F)F` [Q4-45], the “insecticidal effect” value is listed as “B or higher”. The result for `CCCNC(=O)c1c(Cl)cccc1C(=O)Nc1nc(C)c(Oc2ccccc2)n1C` [Q8-11] reads “B or higher”; that for `COc1nc(NC(=O)c2cccc(I)c2C(=O)NC(C)C)nc(OC)c1C(F)(C(F)(F)F)C(F)(F)F` [Q33-10], “B or higher”.

Take `CCN(CC)C(=O)c1c(I)cccc1C(=O)Nc1cnccn1` [Q34-30]: the “insecticidal effect” value is reported as “B or higher”.

`CC(C)NC(=O)c1cccc(Cl)c1C(=O)Nc1nc(-c2ccccc2)cs1` [Q8-14]: the “insecticidal effect” value is “B or higher”. Regarding `Cc1csc(NC(=O)c2cccc(Cl)c2C(=O)NC(C)C)n1` [Q8-2], the “insecticidal effect” value is recorded as “B or higher”. The result for `CSCC(C)(C)NC(=O)c1c(I)cccc1C(=O)Nc1ccc(OC(F)(F)C(F)C(F)(F)F)nc1C` (centres unmarked) [Q27-393] reads “B or higher”; that for `CC(C)NC(=O)c1c(Cl)cccc1C(=O)Nc1nc(C(F)(F)F)cs1` [Q8-3], “B or higher”. For the compound `CC(C)NC(=O)c1cccc(Cl)c1C(=O)Nc1nc(-c2ccccc2)c(Cl)s1` [Q8-15], the “insecticidal effect” value is “B or higher”. The result for `CC(C)NC(=O)c1c(Cl)cccc1C(=O)Nc1cc(-c2ccc(Br)cc2)on1` [Q4-6] reads “B or higher”; that for `Cc1ncoc1NC(=O)c1cccc(I)c1C(=O)NC(C)C` [Q10-7], “B or higher”; that for `CC(C)NC(=O)c1c(I)cccc1C(=O)Nc1c(Cl)ncnc1Cl` [Q32-11], “B or higher”. On to `Cc1nc(OC(F)(F)C(F)C(F)(F)F)ccc1NC(=O)c1cccc(I)c1C(=O)NC(C)C` (centres unmarked) [Q27-391], for which the “insecticidal effect” value was “B or higher”. Regarding `CC(C)NC(=O)c1c(Cl)cccc1C(=O)Nc1nccs1` [Q8-1], the “insecticidal effect” value was “B or higher”.

With `Cc1sc(I)nc1NC(=O)c1cccc(I)c1C(=O)NC(C)C` [Q9-15], the “insecticidal effect” value is reported as “B or higher”. The result for `Cc1cc(C(C)(C)C)sc1NC(=O)c1cccc(I)c1C(=O)NC(C)C` [Q1-12] reads “B or higher”.
